Broadly, the IC50 is the concentration that gives 50% inhibition.

“And” between values parts separate entries of the source, which are not always exact repeats. Equal values may be shown once. Read-outs that look alike come from different tables or passages of the source.

Consider 14 compounds from paper PMC9571594, “Development of Semisynthetic Apoptosis-Inducing Agents Based on Natural Phenolic Acids Scaffold: Design, Synthesis and In-Vitro Biological Evaluation” (Molecules, 2022).

Holding throughout (format): cell-based
One assay has as its system Caco-2 cancer cell line. Nature of the assay: MTT cell viability assay, Caco-2. The settings on record: 48 h; for IC50: MTT, average of triplicates, semi-synthesized compounds (Table 3), read-out: IC50 (μM) on Caco-2 cancer cell line. As for the experimental part:
MCF-7 cells (Human breast adenocarcinoma), HepG2 (human hepatocellular carcinoma), A549 (human lung adenocarcinoma), Caco-2 (colon carcinoma), PANC-1 (human pancreatic cancer), and Vero cells (derived from normal kidney cells) were supplied by (Holding Company for Biological Products and Vaccines VACSERA; Giza, Egypt). The cells were cultured in PRMI 1640 medium (Lonza, Switzerland) supplemented with 10% fetal bovine serum (Gibco), 1% penicillin and 1% streptomycin (Sigma Aldrich, Saint Louis, MO, USA) at 37 °C under an atmosphere of 5% CO2 and 95% air.
The effect of parent compounds and their derivatives were assessed by (3-(4,5-dimethylthiazol-2-yl)-2,5diphenyl-tetrazolium bromide) MTT assay. […] After a merged sheet of cells developed, the growth media was decanted from the 96-well microtiter and refilled with different concentrations of compounds (µg/mL), and the plate was incubated at 37 °C for 48 h to minimize exposure to the dissolving agent (Supporting Information).
MTT solution (BIO BASIC CANADA INC) was prepared [5 mg/mL in phosphate buffered saline (PBS)], added to each well and incubated for 4 h, then after removing the media, 200 μL of DMSO was added to each well to solubilize the formazan crystals and the optical density of the formazan product was measured at 560 nm using microplate reader (mindray, MR-96A). The results were calculated as the mean of the three independent experiments. […]
Determination of sample cytotoxicity on cells (MTT protocol) […]
well) and incubated at 37°C for 24 hours to develop a complete monolayer sheet.
2- Growth medium was decanted from 96 well micro titer plates after confluent sheet of cells were formed, cell monolayer was washed twice with wash media.
3- two-fold dilutions of tested sample was made in RPMI medium with 2% serum […]
4- 0.1 ml of each dilution was tested in different wells leaving 3 wells as control, receiving only maintenance medium.
5- Plate was incubated at 37°C and examined. Cells were checked for any physical signs of toxicity, e.g. partial or complete loss of the monolayer, rounding, shrinkage, […]
6- MTT solution was prepared (5mg/ml in PBS) (BIO BASIC CANADA INC).
8- 20ul MTT solution were added to each well. Place on a shaking table, 150rpm for 5 minutes, to thoroughly mix the MTT into the media.
10) Dump off the media. (dry plate on paper towels to remove residue if necessary. […] 9 ش - ايلعلا هبضهلا - مطقملا / ىسيئرلا لمعملا […]

Assay [1] relates to Caco-2 cells. Nature of the assay: Annexin V-FITC/PI apoptosis assay by flow cytometry. The arrangement: key: % of cells. To be noted: annexin-V FITC/PI staining, 24h. As for the experimental part: (§1) In order to determine the percentage of viable, apoptotic and necrotic cells after treatment with our compounds, double-staining with fluorescein isothiocyanate (FITC) and PI was performed. Annexin V-FITC Apoptosis Detection Kit (BioVision, CA, USA) was used. Briefly, cultured Caco-2 were treated with the tested compounds or DMSO for 24h. Cells were then collected by centrifugation at 2000 rpm for 5 min, and the pellet was washed with PBS then centrifuged again at 2000 rpm for 5 min then resuspended in 500μL of the kit’s binding buffer before adding the Annexin V-FITC and PI. The cells were then incubated at room temperature in the dark for 5 min. Annexin V-FITC binding was measured using FACS Calibur flow cytometer (BD biosciences, USA) (Ex = 488 nm, Em = 533 nm, FL1 filter for annexin and FL2 filter for PI).

For assay [2], the system named is Caco-2 cells. Nature of the assay: Cell-cycle analysis by flow cytometry. The settings on record: for %G0–G1 / %G2/M / %S / %Pre-G1: Caco-2 cells; for %G0–G1 / %G2/M / %S: cell-cycle distribution after treatment; for %Pre-G1: Pre-G1 = apoptotic population. As for the experimental part:
The potential candidates with anti-tumor effect on the Caco-2 cell line along with a high SI were chosen for cell-cycle analysis. The cell-cycle distribution and cell death were analyzed using Annexin V-FITC/PI staining and flow cytometry (Table 4, Figure 4).
as §1, with “Annexin V-FITC binding was measured using FACS Calibur flow cytometer (BD biosciences, USA) (Ex = 488 nm, Em = 533 nm, FL1 filter for annexin and FL2 filter for PI).” left out
Assay : Cell Cycle Analysis
Kit used : ab139418_Propidium Iodide Flow Cytometry Kit/BD
Assay samples :Cell culture
(§2) Cpd. No. Cpd. No. Cpd. No. Cpd. No.

The test system of a further assay is MMP-2. As to the kind of experiment: RT-qPCR gene expression of MMP-2. To be noted: for MMP2 Fold Change: Caco2, relative to cont.Caco2 = 1. As for the experimental part:
(§3) The treated cells were harvested and the total RNA was extracted using RNeasy Mini Kit (Qiagen) according to the manufacturer’s instruction. The primers of the required genes (Table 6) were used for SYBR Green qRT-PCR using a one-step RT-PCR kit with SYBR Green (Bio-Rad). qRT-PCR was performed on Rotor Gene Q (Qiagen). […] Rotor-Gene 6000 Series Software was used for data analysis. and their HGNC ID was added (Table 6)
(§4) Researcher : Dr/Noura email: mob.
(§5) Reader : Rotorgene RT- PCR system
(§6) Kit used : Qiagen RNA extraction/BioRad syber green PCR MMX
(§7) Assay samples :Cell culture Lysate
as §2
In general terms: Real-time PCR tracks product formation cycle by cycle.

For the next assay, the system named is MMP-9. Nature of the assay: RT-qPCR gene expression of MMP-9. The settings on record: for MMP9 Fold Change: Caco2, relative to cont.Caco2 = 1. As for the experimental part: as §3, §4, §5, §6, §7, §2

Turning to `O=C(/C=C/c1ccc(O)c(O)c1)N1CCN(c2ccccc2)CC1` [Compound 3, (E)-3-(3,4-Dihydroxyphenyl)-1-(4-phenylpiperazin-1-yl)prop-2-en-1-one], in the assay on Caco-2 cancer cell line (Homo sapiens, Caco-2), the concentration for half-maximal inhibition (IC50) stood at 80 µM.
Same read-out and setting: the value for `O=C(/C=C/c1ccc(O)c(O)c1)Nc1ccc(O)cc1` [Compound 4, (E)-3-(3,4-Dihydroxyphenyl)-N-(4-hydroxyphenyl)acrylamide] was 70 µM.
For the compound `Cc1ccc(NC(=O)/C=C/c2ccc(O)c(O)c2)cc1` [Compound 5, (E)-3-(3,4-Dihydroxyphenyl)-N-(p-tolyl)acrylamide], the half-maximal inhibitory concentration (IC50) in the assay with Caco-2 cancer cell line (Homo sapiens, Caco-2) was 60 µM. For the same compound, in the assay with Caco-2 cells [1], the “Apoptosis Total” value worked out at 7.56, the “Early Apoptosis” value was determined as 2.59, the “Late Apoptosis” value stood at 3.93 and the Necrosis is on record as 1.04. Besides, in the assay with Caco-2 cells [2], the “%G0–G1” value was determined as 41.52 ± 2.61%, the “%G2/M” value was found to be 26.86 ± 2.75%, the “%S” value came to 31.62 ± 1.79% and the “%Pre-G1” value is 7.56 ± 0.39%. Besides, in the assay on Caco-2 cells [2] (listed as CA3), the “%G0–G1” value is reported as 41.52%, the “%G2/M” value turned out to be 26.86%, the “%S” value turned out to be 31.62% and the “%Pre-G1” value was 7.56%.
Take `O=C(/C=C/c1ccc(O)c(O)c1)NC1CCCCC1` [Compound 6, (E)-N-Cyclohexyl-3-(3,4-dihydroxyphenyl)acrylamide]: the IC50 with Caco-2 cancer cell line (Homo sapiens, Caco-2) came to 50 µM.
Consider `O=C(/C=C/c1ccc(O)c(O)c1)Nc1ccc(Br)cc1` [Compound 7, (E)-N-(4-Bromophenyl)-3-(3,4-dihydroxyphenyl)acrylamide], for which, in the assay with MMP-2, the “MMP2 Fold Change” value is listed as 0.16±0.004 Fold Change. For the same compound, the “expression of MMP2 (in words)” value in the assay on MMP-2 (Figures 8 and 9) is given as “greatest inhibition”. Further, in the assay on Caco-2 cancer cell line (Homo sapiens, Caco-2), the concentration for half-maximal inhibition (IC50) was determined as 20 µM. Moreover, in the assay with Caco-2 cells [1], the “Apoptosis Total” value stood at 18.26, the “Early Apoptosis” value was 4.75 and the Necrosis is given as 2.14. Also, the “MMP9 Fold Change” value in the assay with MMP-9 was found to be 0.29±0.006 Fold Change. In the assay on MMP-9 (Figures 8 and 9), the “expression of MMP9 (in words)” value is recorded as “greatest inhibition”. Further, in the assay with Caco-2 cells [2], the “%G0–G1” value stood at 28.68 ± 1.64%; the “%G2/M” value came out at 44.91 ± 3.42%; the “%S” value worked out at 26.41 ± 2.15%; the “%Pre-G1” value is 18.26% and 18.26 ± 1.42%. In addition, in the assay with Caco-2 cells [2] (listed as CA6), the “%G0–G1” value is given as 28.68%, the “%G2/M” value came to 44.91% and the “%S” value was determined as 26.41%.
`COc1ccc(NC(=O)/C=C/c2ccc(O)c(O)c2)cc1` [Compound 8, (E)-N-(4-Methoxyphenyl)-3-(3,4-dihydroxyphenyl)acrylamide]: in the assay on Caco-2 cancer cell line (Homo sapiens, Caco-2), the IC50 turned out to be 80 µM.
As for `O=C(/C=C/c1ccc(O)c(O)c1)NCc1ccccc1` [Compound 9, (E)-N-Benzyl-3-(3,4-dihydroxyphenyl)acrylamide], the IC50 in the assay on Caco-2 cancer cell line (Homo sapiens, Caco-2) was 30 µM. In addition, in the assay with Caco-2 cells [1], the “Apoptosis Total” value is reported as 9.62, the “Early Apoptosis” value is 3.72, the “Late Apoptosis” value amounted to 4.54 and the Necrosis came to 1.36. In addition, in the assay on Caco-2 cells [2], the “%G0–G1” value was 38.51 ± 1.95%, the “%G2/M” value came out at 30.05 ± 2.59%, the “%S” value is on record as 31.44 ± 2.87% and the “%Pre-G1” value was determined as 9.62 ± 0.37%. In the assay on Caco-2 cells [2] (listed as CA9), the “%G0–G1” value was 38.51%, the “%G2/M” value was 30.05%, the “%S” value was determined as 31.44% and the “%Pre-G1” value stood at 9.62%.
Take `O=C(/C=C/c1ccc(O)c(O)c1)Nc1ccc(Cl)cc1` [Compound 10, (E)-N-(4-Chlorophenyl)-3-(3,4-dihydroxyphenyl)acrylamide]: the half-inhibitory concentration (IC50) with Caco-2 cancer cell line (Homo sapiens, Caco-2) was 9 µM. Also, in the assay with Caco-2 cells [1], the “Apoptosis Total” value turned out to be 23.42, the “Early Apoptosis” value is 7.59 and the Necrosis worked out at 3.14. In the assay with Caco-2 cells [2], the “%G0–G1” value is 29.75 ± 1.73%; the “%G2/M” value is given as 41.98 ± 2.18%; the “%S” value was determined as 28.27 ± 1.99%; the “%Pre-G1” value was 23.42% and 23.42 ± 2.12%. In the assay on Caco-2 cells [2] (listed as CA11), the “%G0–G1” value worked out at 29.75%, the “%G2/M” value stood at 41.98% and the “%S” value was 28.27%.
Turning to `COc1ccc(/C=C/C(=O)N2CCN(c3ccccc3)CC2)cc1O` [Compound 12, (E)-3-(3-Hydroxy-4-methoxyphenyl)-1-(4-phenylpiperazin-1-yl)prop-2-en-1-one], the IC50 with Caco-2 cancer cell line (Homo sapiens, Caco-2) was 40 µM.
On the same count and under the same terms, the value for `COc1ccc(NC(=O)/C=C/c2ccc(OC)c(O)c2)cc1` [Compound 13, (E)-3-(3-Hydroxy-4-methoxyphenyl)-N-(4-methoxyphenyl)acrylamide] was 80 µM.
Same read-out and setting: with `COc1ccc(NC(=O)/C=C/c2ccc(O)c(OC)c2)cc1` [Compound 16, (E)-3-(4-Hydroxy-3-methoxyphenyl)-N-(4-methoxyphenyl)acrylamide] the figure was 80 µM.
Regarding `COc1ccc(/C=C/C(=O)Nc2ccccc2N)cc1O` [Compound 20, (E)-N-(2-Aminophenyl)-3-(3-hydroxy-4-methoxyphenyl)acrylamide], the “MMP2 Fold Change” value in the assay on MMP-2 was found to be 0.68±0.018 Fold Change. Moreover, in the assay with Caco-2 cells [1], the “Apoptosis Total” value was determined as 8.62, the “Early Apoptosis” value came out at 2.19, the “Late Apoptosis” value is 5.19 and the Necrosis was 1.24. The “MMP9 Fold Change” value in the assay with MMP-9 is reported as 0.45±0.009 Fold Change. Moreover, the “apoptotic population compared to the parent compound” value in the assay on Caco-2 cells [2] (Caco-2, in words, versus parent 1 or 2) is listed as “non-significant decrease”. In the assay on Caco-2 cells [2], the “%G0–G1” value is 39.12 ± 2.58%, the “%G2/M” value stood at 26.84 ± 2.34%, the “%S” value was 34.04 ± 2.69% and the “%Pre-G1” value is on record as 8.62 ± 0.69%. Besides, in the assay with Caco-2 cells [2] (listed as FA12), the “%G0–G1” value came out at 39.12%, the “%G2/M” value came to 26.84%, the “%S” value was 34.04% and the “%Pre-G1” value was determined as 8.62%.
Consider `COc1cccc2c1C(=O)c1c(O)c3c(c(O)c1C2=O)C[C@@](O)(C(=O)CO)C[C@@H]3O[C@H]1C[C@H](N)[C@H](O)[C@H](C)O1` [Doxorubicin], for which, in the assay with Caco-2 cancer cell line, the “IC50 (μM) ± SD Caco-2” value is 0.17 ± 1.1 µM.
Regarding “(E)-3-(3-Hydroxy-4-methoxyphenyl)-N-(p-tolyl)acrylamide [Compound 14]”, the 50% inhibitory concentration (IC50) with Caco-2 cancer cell line was determined as 50 µM. Further, in the assay on Caco-2 cells [1], the “Apoptosis Total” value was 16.51, the “Early Apoptosis” value came out at 3.99 and the Necrosis came out at 2.26. Further, the “%Pre-G1” value with Caco-2 cells [2] is 16.51% and 16.51 ± 0.63%.
